Among the data in patent US20240360178A1, “MACROCYCLIC IMMUNOMODULATORS” (Bristol-Myers Squibb Company, priority 2021, published 2024) are IC50 values, retold here.

Each structure is given as a SMILES string. pIC50: −log10 of the molar value. Positions of bridges follow the written chain, without caps; N, C: chain ends. Non-standard residues stand in square brackets, D forms with d. Residues, ends and D or L forms follow the SMILES beside them. ξ: configuration not given here. *: point of attachment. Phe(4-COOH) = N[C@@H](Cc1ccc(C(=O)O)cc1)C(=O)O; Bip = N[C@@H](Cc1ccc(-c2ccccc2)cc1)C(=O)O; dPro(4S-NH2) = N[C@@H]1CN[C@@H](C(=O)O)C1; Phe(3-CN) = N#Cc1cccc(C[C@H](N)C(=O)O)c1; Phe(3-Me) = Cc1cccc(C[C@H](N)C(=O)O)c1; NMeY = CN[C@@H](Cc1ccc(O)cc1)C(=O)O; Val(3-OH) = CC(C)(O)[C@H](N)C(=O)O; NMeF = CN[C@@H](Cc1ccccc1)C(=O)O; ξW = NC(Cc1c[nH]c2ccccc12)C(=O)O; 4Pal = N[C@@H](Cc1ccncc1)C(=O)O; Cha = N[C@@H](CC1CCCCC1)C(=O)O; Cit = NC(=O)NCCC[C@H](N)C(=O)O; dDab = NCC[C@@H](N)C(=O)O; ξR = N=C(N)NCCCC(N)C(=O)O; Carboxymethyl = O=C(O)C*; NMeA = CN[C@@H](C)C(=O)O; Orn = NCCC[C@H](N)C(=O)O; Dab = NCC[C@H](N)C(=O)O; Abu = CC[C@H](N)C(=O)O; Dap = NC[C@H](N)C(=O)O; NBuGly = CCCCNCC(=O)O; ξV = CC(C)C(N)C(=O)O; Sar = CNCC(=O)O

The test addresses T1, human PD-1 (Jurkat-PD-1 cells) / PE-labeled human PD-L1-Ig (Homo sapiens, UniProt Q15116).
T1 construct: expressed in transfected cells; host or cells: Jurkat cell line over-expressing human PD-1
The experiment in a line: Jurkat-PD-1 Cell Binding High-Content Screening Assay (CBA); Jurkat hPD1-PDL1 assay. The note with it: Jurkat cell line over-expressing human PD-1; PE-labeled PD-L1-Ig 20 nM final; compound incubated 2 hours at 37° C.; read-out: Jurkat HPD1-PDL1 IC50. The gist of the method: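 Binding of phycoerythrin-conjugated PD-L1-Ig (20 nM final) to PD-1-overexpressing Jurkat cells was read by high-content imaging. Cells in DMEM/10% FCS were exposed to compound for 2 hours at 37° C before labeled ligand was added.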

T1 sequence (Q15116 25-288): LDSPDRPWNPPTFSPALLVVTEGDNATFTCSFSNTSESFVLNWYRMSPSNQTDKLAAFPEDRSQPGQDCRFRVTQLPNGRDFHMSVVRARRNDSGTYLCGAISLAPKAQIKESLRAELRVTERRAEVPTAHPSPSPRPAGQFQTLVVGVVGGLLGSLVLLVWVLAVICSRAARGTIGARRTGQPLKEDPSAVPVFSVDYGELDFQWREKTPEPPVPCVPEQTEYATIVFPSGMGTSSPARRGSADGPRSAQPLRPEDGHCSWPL

The pIC50 is the IC50 on a negative log10 scale, so that one unit is a factor of ten. Regarding `CC(C)C[C@@H]1NC(=O)[C@H](CCN)NC(=O)[C@H](Cc2ccccc2)N(C)C(=O)[C@H](C)N(C)C(=O)[C@H](CCCNC(=N)N)NC(=O)[C@H](Cc2ccc(-c3ccccc3)cc2)NC(=O)[C@H](C(C)C)NC(=O)[C@H](Cc2c[nH]c3ccccc23)NC(=O)[C@H](CC(=O)O)NC(=O)[C@H](Cc2ccc(O)cc2)NC(=O)[C@H](CCC(N)=O)NC(=O)CSC[C@@H](C(=O)N[C@@H](C)C(N)=O)NC(=O)[C@H]([C@@H](C)O)NC(=O)[C@H](C(C)C)NC1=O` [Example 1326] ({CH2CO}-QYDWV[Bip]R[NMeA][NMeF][Dab]LVTCA-NH2; thioether N-14), the pIC50 was 6.82.

`Cc1cccc(C[C@@H]2NC(=O)[C@H](CC(=O)O)NC(=O)[C@H](Cc3cccc(C#N)c3)NC(=O)[C@H](Cc3ccncc3)NC(=O)CSC[C@@H](C(=O)N[C@@H](CCN)C(N)=O)NC(=O)[C@H](CO)NC(=O)[C@H](C(C)(C)O)NC(=O)[C@H](CC3CCCCC3)NC(=O)[C@H](CCN)NC(=O)[C@H]3CCCN3C(=O)[C@H](C)N(C)C(=O)[C@H](Cc3ccc(OCC(=O)O)cc3)NC(=O)[C@H](Cc3ccc(-c4ccccc4)cc3)NC(=O)[C@H](Cc3ccc(OCC(=O)O)cc3)NC2=O)c1` [Example 1182] ({CH2CO}-[4Pal][Phe(3-CN)]D[Phe(3-Me)]Y(Carboxymethyl)[Bip]Y(Carboxymethyl)[NMeA][dP][Dab][Cha][Val(3-OH)]SC[Dab]-NH2; thioether N-14): the pIC50 is 6.62.

Take `CC(C)C[C@@H]1NC(=O)[C@H](Cc2c[nH]c3ccccc23)NC(=O)[C@H](CC(=O)O)NC(=O)[C@H](Cc2ccc(O)cc2)NC(=O)[C@H](Cc2ccccc2)NC(=O)CSC[C@@H](C(=O)N[C@@H](CCC(=O)O)C(N)=O)NC(=O)[C@H](CO)NC(=O)[C@H](C(C)C)NC(=O)[C@H](CC(C)C)NC(=O)[C@H](CC(N)=O)NC(=O)CN(C)C(=O)[C@H](C)N(C)C(=O)[C@H](C(C)C)NC(=O)[C@H](Cc2ccc(-c3ccccc3)cc2)NC1=O` [Example 1251] ({CH2CO}-FYDWL[Bip]V[NMeA][Sar]NLVSCE-NH2; thioether N-14): the pIC50 was 6.44.

In the case of `CC(C)C[C@@H]1NC(=O)[C@H](Cc2c[nH]c3ccccc23)NC(=O)[C@H](CC(=O)O)NC(=O)[C@H](Cc2ccc(O)cc2)NC(=O)[C@H](Cc2ccccc2)NC(=O)CSC[C@@H](C(=O)N[C@@H](C)C(N)=O)NC(=O)[C@H](CO)NC(=O)[C@H](C(C)C)NC(=O)[C@H](CC(C)C)NC(=O)[C@H](CC(N)=O)NC(=O)[C@H]2C[C@H](N)CN2C(=O)[C@H]2CCCN2C(=O)[C@H](C(C)C)NC(=O)[C@H](Cc2ccc(-c3ccccc3)cc2)NC1=O` [Example 1175] ({CH2CO}-FYDWL[Bip]V[dP][dPro(4S-NH2)]NLVSCA-NH2; thioether N-14), the pIC50 was 6.30.

On to `CCCCN1CC(=O)N[C@@H](CCN)C(=O)N[C@@H](CC2CCCCC2)C(=O)N[C@@H](C(C)C)C(=O)N[C@@H](CO)C(=O)N[C@H](C(=O)N[C@@H](CCN)C(N)=O)CSCC(=O)N[C@@H](Cc2ccncc2)C(=O)N[C@@H](Cc2ccc(OCC(=O)O)cc2)C(=O)N[C@@H](CC(=O)O)C(=O)N[C@@H](Cc2cccc(C)c2)C(=O)N[C@@H](Cc2ccc(OCC(=O)O)cc2)C(=O)N[C@@H](Cc2ccc(-c3ccccc3)cc2)C(=O)N[C@@H](Cc2ccc(OCC(=O)O)cc2)C(=O)N(C)[C@@H](C)C1=O` [Example 1187] ({CH2CO}-[4Pal]Y(Carboxymethyl)D[Phe(3-Me)]Y(Carboxymethyl)[Bip]Y(Carboxymethyl)[NMeA][NBuGly][Dab][Cha]VSC[Dab]-NH2; thioether N-14), for which the negative logarithm of the IC50 (pIC50) is 6.54.

For `Cc1cccc(C[C@@H]2NC(=O)[C@H](CC(=O)O)NC(=O)[C@H](Cc3ccc(O)cc3)NC(=O)[C@H](CC(N)=O)NC(=O)CSC[C@@H](C(=O)N[C@@H](C)C(N)=O)NC(=O)[C@H]([C@@H](C)O)NC(=O)[C@H](C(C)C)NC(=O)[C@H](CC(C)C)NC(=O)[C@H](CCN)NC(=O)[C@H](Cc3ccccc3)N(C)C(=O)[C@H](C)N(C)C(=O)[C@H](CCCNC(N)=O)NC(=O)[C@H](Cc3ccc(-c4ccccc4)cc3)NC(=O)[C@H](C(C)C)NC2=O)c1` [Example 1374] ({CH2CO}-NYD[Phe(3-Me)]V[Bip][Cit][NMeA][NMeF][Dab]LVTCA-NH2; thioether N-14), the pIC50 is 8.00.

Turning to `CC(C)C[C@@H]1NC(=O)[C@H](Cc2c[nH]c3ccccc23)NC(=O)[C@H](CC(=O)O)NC(=O)[C@H](Cc2ccc(C(=O)O)cc2)NC(=O)[C@H](Cc2ccccc2)NC(=O)CSC[C@@H](C(=O)N[C@@H](C)C(N)=O)NC(=O)[C@H](CO)NC(=O)[C@H](C(C)C)NC(=O)[C@H](CC(C)C)NC(=O)[C@H](CC(N)=O)NC(=O)[C@H]2CCCN2C(=O)[C@H](C)N(C)C(=O)[C@H](C(C)C)NC(=O)[C@H](Cc2ccc(-c3ccccc3)cc2)NC1=O` [Example 1020] ({CH2CO}-F[Phe(4-COOH)]DWL[Bip]V[NMeA][dP]NLVSCA-NH2; thioether N-14), the pIC50 was 7.40.

In the case of `CC(C)C[C@@H]1NC(=O)C(CCCNC(=N)N)NC(=O)[C@H](Cc2ccccc2)N(C)C(=O)[C@H](C)N(C)C(=O)[C@H](CCCNC(=N)N)NC(=O)[C@H](Cc2ccc(-c3ccccc3)cc2)NC(=O)[C@H](C(C)C)NC(=O)[C@H](Cc2c[nH]c3ccccc23)NC(=O)[C@H](CC(=O)O)NC(=O)[C@H](Cc2ccc(O)cc2)NC(=O)[C@H](Cc2ccccc2)NC(=O)CSC[C@@H](C(=O)NCC(N)=O)NC(=O)[C@H](CCC(=O)O)NC(=O)[C@H](C(C)C)NC1=O` (stereo partly drawn) [Example 1219] ({CH2CO}-FYDWV[Bip]R[NMeA][NMeF][ξR]LVECG-NH2; thioether N-14), the negative logarithm of the IC50 (pIC50) is 6.21.

With `CC(C)C[C@@H]1NC(=O)[C@H](CCCNC(=N)N)NC(=O)CN(C)C(=O)[C@H](C)N(C)C(=O)[C@H](C(C)C)NC(=O)[C@H](Cc2ccc(-c3ccccc3)cc2)NC(=O)[C@H](C(C)C)NC(=O)[C@H](Cc2c[nH]c3ccccc23)NC(=O)[C@H](CC(=O)O)NC(=O)[C@H](Cc2ccc(O)cc2)NC(=O)[C@H](Cc2ccccc2)NC(=O)CSC[C@@H](C(=O)NCC(N)=O)NC(=O)[C@H](CO)NC(=O)[C@H](C(C)C)NC1=O` [Example 1230] ({CH2CO}-FYDWV[Bip]V[NMeA][Sar]RLVSCG-NH2; thioether N-14), the pIC50 is 7.22.

`CC[C@@H]1NC(=O)[C@H](Cc2c[nH]c3ccccc23)NC(=O)[C@H](CC(=O)O)NC(=O)[C@H](Cc2ccc(O)cc2)NC(=O)[C@H](Cc2ccccc2)NC(=O)CSC[C@@H](C(=O)NCC(N)=O)NC(=O)[C@H](CO)NC(=O)[C@H](C(C)C)NC(=O)[C@H](CC(C)C)NC(=O)[C@H](CCCNC(=N)N)NC(=O)[C@H](Cc2ccccc2)N(C)C(=O)[C@H](C)N(C)C(=O)[C@H](CCCNC(=N)N)NC(=O)[C@H](Cc2ccc(-c3ccccc3)cc2)NC1=O` [Example 1336] ({CH2CO}-FYDW[Abu][Bip]R[NMeA][NMeF]RLVSCG-NH2; thioether N-14): the negative logarithm of the IC50 (pIC50) was 6.39.

Regarding `CC(C)C1NC(=O)[C@H](Cc2c[nH]c3ccccc23)NC(=O)[C@H](CC(=O)O)NC(=O)[C@H](Cc2ccncc2)NC(=O)[C@H](CN)NC(=O)CSC[C@@H](C(=O)N[C@@H](C)C(N)=O)NC(=O)[C@H]([C@@H](C)O)NC(=O)[C@H](C(C)C)NC(=O)[C@H](CC2CCCCC2)NC(=O)[C@H](CCN)NC(=O)[C@H](Cc2ccc(O)cc2)N(C)C(=O)[C@H](CCCN)NC(=O)[C@H](CCC(=O)O)NC(=O)[C@H](Cc2ccc(-c3ccccc3)cc2)NC1=O` (stereo partly drawn) [Example 1451] ({CH2CO}-[Dap][4Pal]DW[ξV][Bip]E[Orn][NMeY][Dab][Cha]VTCA-NH2; thioether N-14), the pIC50 was 6.28.

As for `CC(C)C[C@@H]1NC(=O)[C@H](Cc2c[nH]c3ccccc23)NC(=O)[C@H](CC(=O)O)NC(=O)[C@H](Cc2ccc(O)cc2)NC(=O)[C@H](Cc2ccccc2)NC(=O)CSC[C@@H](C(=O)N[C@@H](C)C(N)=O)NC(=O)[C@H](CO)NC(=O)[C@H](C(C)C)NC(=O)[C@H](CC(C)C)NC(=O)[C@H](CC(N)=O)NC(=O)CN(C)C(=O)[C@@H](CCN)NC(=O)[C@H](C(C)C)NC(=O)[C@H](Cc2ccc(-c3ccccc3)cc2)NC1=O` [Example 1196] ({CH2CO}-FYDWL[Bip]V[dDab][Sar]NLVSCA-NH2; thioether N-14), the pIC50 was 6.02.

`CC(C)C[C@@H]1NC(=O)[C@H](Cc2c[nH]c3ccccc23)NC(=O)[C@H](CC(=O)O)NC(=O)[C@H](Cc2ccc(OCC(=O)O)cc2)NC(=O)[C@H](Cc2ccc(OCC(=O)O)cc2)NC(=O)CSC[C@@H](C(=O)N[C@@H](C)C(N)=O)NC(=O)[C@H](CO)NC(=O)[C@H](C(C)C)NC(=O)[C@H](CC(C)C)NC(=O)[C@H](CC(N)=O)NC(=O)[C@H]2CCCN2C(=O)[C@H](C)N(C)C(=O)[C@H](C(C)C)NC(=O)[C@H](Cc2ccc(-c3ccccc3)cc2)NC1=O` [Example 1432] ({CH2CO}-Y(Carboxymethyl)Y(Carboxymethyl)DWL[Bip]V[NMeA][dP]NLVSCA-NH2; thioether N-14): the negative-log IC50 (pIC50) is 7.10.

`CC(C)C[C@@H]1NC(=O)CSC[C@@H](C(=O)NCC(N)=O)NC(=O)[C@H](CO)NC(=O)[C@H](C(C)C)NC(=O)[C@H](CC(C)C)NC(=O)[C@H](CCCNC(=N)N)NC(=O)[C@H](Cc2ccccc2)N(C)C(=O)[C@H](C)N(C)C(=O)[C@H](CCC(=O)O)NC(=O)[C@H](Cc2ccc(-c3ccccc3)cc2)NC(=O)[C@H](C(C)C)NC(=O)[C@H](Cc2c[nH]c3ccccc23)NC(=O)[C@H](CC(=O)O)NC(=O)[C@H](Cc2ccc(O)cc2)NC1=O` [Example 1287] ({CH2CO}-LYDWV[Bip]E[NMeA][NMeF]RLVSCG-NH2; thioether N-14): the pIC50 is 6.89.

In the case of `CC(C)C[C@@H]1NC(=O)[C@H](CC(N)=O)NC(=O)CN(C)C(=O)[C@H](CCCNC(=N)N)NC(=O)[C@H](C(C)C)NC(=O)[C@H](Cc2ccc(-c3ccccc3)cc2)NC(=O)[C@H](C(C)C)NC(=O)C(Cc2c[nH]c3ccccc23)NC(=O)[C@H](CC(=O)O)NC(=O)[C@H](Cc2ccc(O)cc2)NC(=O)[C@H](Cc2ccccc2)NC(=O)CSC[C@@H](C(=O)NCC(N)=O)NC(=O)[C@H](CO)NC(=O)[C@H](C(C)C)NC1=O` (stereo partly drawn) [Example 1229] ({CH2CO}-FYD[ξW]V[Bip]VR[Sar]NLVSCG-NH2; thioether N-14), the pIC50 was 6.36.
